We go through 16 compounds from publication PMC12177760, “In Silico Discovery of a Novel Antiviral Scaffold for SARS-CoV‑2 Targeting the Spike Glycoprotein through the Fatty Acid Binding Pocket” (ACS Omega, 2025).

In series [1] the test system is SARS-CoV-2 original Wuhan strain (INMI1 P4) in Vero E6 cells. Briefly: microbe, parasite or virus in culture. In kind it is cell-based. The settings on record: for inhibition at 22 µM: Severe acute respiratory syndrome coronavirus 2, Vero C1008; for inhibition at 22 µM / inhibition at 33 µM: read-out: inhibition of viral induced CPE; for inhibition at 33 µM: Severe acute respiratory syndrome coronavirus 2, Vero C1008, 72 h.

The target in series [2] is S-ACE2 interaction (SARS-CoV-2 S protein trimer, Wuhan strain, with biotinylated-ACE2) (Severe acute respiratory syndrome coronavirus 2, UniProt P0DTC2). The series can be described thus: biochemical. The class given is binding. As to conditions: for inhibition of the S-ACE2 interaction: 200 μM.
Series [3] concerns SARS-CoV-2 Wuhan strain. In kind it is cell-based.
The next series has as its system Vero E6 cells. As to conditions: 200 μM.
Another series is described as follows: in vitro. As to conditions: African green monkey.
For series [4], the system named is SARS-CoV-2 Wuhan strain. In kind it is cell-based. The source holds these as a separate data set.
The next series concerns RBD-ACE2 binding. As to conditions: ref not given, cited from earlier work.

Broadly, the inhibition is how much of the control response was suppressed. The EC50 is the concentration at which the effect is half-maximal.

As for `Cc1cccc(OCC(=O)N2CC=C(c3c[nH]c4ccccc34)CC2)c1C` [compound 15], the inhibition at 22 µM in series [1] amounted to 10%. This compound returned an inhibition at 200 µM in series [2] of 20%.

Regarding `CC(NC(=O)CCC(=O)N1CCC(c2ccccc2)=N1)c1ccc(-n2cncn2)cc1` (stereo not shown) [compound 17], the “decrease in the number of infectious virions released” value with SARS-CoV-2 Wuhan strain [3] was determined as 81%. Also, in series [1] (2.5 μM), the “reduction in viral induced CPE” value was “over 10%”. Moreover, the inhibition at 33 µM in series [1] worked out at 23%. The cytotoxicity result with Vero E6 cells was “strong cytotoxicity”. In the series “in vitro”, the CC50 stood at 90 µM. Also, in series [2], the inhibition at 200 µM is ~20% and the “inhibition of the S-ACE2 interaction” value is “surpassed PEA”.

In the case of `O=C(Nc1nc(-c2ccc3c(c2)CCC3)cs1)c1ccc(CSc2nnc[nH]2)cc1` [compound 12], the “inhibition of the S-ACE2 interaction” value in series [2] is listed as “surpassed PEA”.

`Cc1ccc(C(C)N(C)C(=O)CCC(=O)N2CCC(c3ccccc3)=N2)cc1` (stereo not shown) [compound 27]: the “antiviral activity (qualitative structure-activity relationship, CPE)” value in series [1] is given as “activity maintained”.

Regarding `CC(=O)c1ccc(N2CCN(Cn3nc4cc(C)c5ccccc5n4c3=S)CC2)cc1` [compound 1], the inhibition at 22 µM in series [1] is 10%.

As for `O=C(CCc1nc2ccccc2s1)N1CCC(CCc2ccc(O)cc2)CC1` [compound 9], testing at 200 µM in series [2] gave an inhibition of 20%.

With `CC(c1ccc(-n2cncn2)cc1)N(C)C(=O)CCC(=O)N1CCC(c2ccccc2)=N1` (stereo not shown) [compound 36], in the series with SARS-CoV-2 Wuhan strain [3], the “PFU/mL, drug” value is 2.49 × 10^7 PFU/mL and the “reduction of replication-capable lytic virions (TCID50)” value amounted to 90%. In addition, the inhibition at 33 µM in series [1] was 91%. Besides, the 50% effective concentration (EC50) in series [1] (Severe acute respiratory syndrome coronavirus 2, Vero C1008, read-out: EC50 (inhibition of SARS-CoV-2-induced CPE)) came out at 290 nM. Further, the “detected viral genomic copies” value in the series with SARS-CoV-2 Wuhan strain [4] came out at 16.9 copies/20 μL. Further, in the series with SARS-CoV-2 Wuhan strain [4] (33 μM), the “reduction in number of viral genome copies in the supernatant” value amounted to 89%.

`CCCCC/C=C\C/C=C\CCCCCCCC(=O)O` [LA, linoleic acid, reference compound] yielded an inhibition at 200 µM in series [2] of 84%. In addition, the “inhibition of the RBD-ACE2 binding” value in the series with RBD-ACE2 binding (8.9 mM, in vitro assays) is given as 100%.

Regarding `CS(=O)(=O)N1CCCc2cc(-c3csc(-c4cccc(C(N)=O)c4)n3)ccc21` [compound 7], in series [2], the inhibition at 200 µM is 20%.

Take `CCCCCCCCCCCCCCCC(=O)NCCO` [PEA, palmitoylethanolamide, reference compound]: in series [2], 200 µM produced 17% inhibition. Further, the “reduction of RBD binding with ACE2” value in the series on RBD-ACE2 binding is listed as ~50%.

For `CCn1c2ccccc2c2cc(NC(=O)c3ccc(OCC(N)=O)cc3)ccc21` [compound 4], the “reduction in viral induced CPE” value in series [1] (67 μM) is reported as “over 10%”. The inhibition at 200 µM in series [2] came out at 28%.

As to `CC(NC(=O)CCC(=O)N1CCN(c2ccccc2)CC1)c1ccc(-n2cncn2)cc1` (stereo not shown) [compound 31], in series [1], the inhibition at 33 µM was 8%.

`N#Cc1ccc(C2(NC(=O)CCC(=O)N3CCC(c4ccccc4)=N3)CC2)cc1` [compound 35]: the inhibition at 33 µM in series [1] is 16%.

Regarding `CC(NC(=O)CCC(=O)N1CCC(c2ccccc2)=N1)c1ccc(-c2ccccc2)cc1` (stereo not shown) [compound 32], the inhibition at 33 µM in series [1] stood at 27%.

As to `CC(OC(=O)CCC(=O)N1CCC(c2ccccc2)=N1)c1ccc(-n2cncn2)cc1` (stereo not shown) [compound 34], the inhibition at 33 µM in series [1] worked out at 19%.

On to `Cc1nc(-c2ccc(C(C)NC(=O)CCC(=O)N3CCC(c4ccccc4)=N3)cc2)cs1` (stereo not shown) [compound 20], for which the inhibition at 33 µM in series [1] is 34%.
